The source of these data is publication PMC7023466, “Novel N,N′-Disubstituted Acylselenoureas as Potential Antioxidant and Cytotoxic Agents” (Antioxidants, 2020).

The test system of assay [1] is MCF-7 cells. Description: MTT cell viability assay, MCF-7. The assay is classed as cell-based, human. To be noted: Homo sapiens, MCF7, 48 h, read-out: Growth (%) MCF-7. On the procedure:
(§1) The cell viability assay of each compound was carried out using the MTT assay. Each compound was dissolved in dimethyl sulfoxide (DMSO) at a concentration of 0.01 M. Serial dilutions were prepared with a non-supplemented culture medium. The effect of each compound on the cell viability was determined at two different concentrations (10 and 50 µM) in MCF-7, HTB-54, and HT-29 cells. In addition, the selected compounds were tested at six different concentrations between 0.1–100 µM in MCF-7, T47D, H1299, HTB-54, and 184B5 cells.
(§2) Briefly, 1 × 10^4 tumor cells/well or 2 × 10^4 non-tumorigenic cells/well were grown in 96-well plates for 12 h. Then, these cells were incubated with either DMSO (control) or a different concentration of each of the tested compounds for 48 h. Three hours before the termination point, 20 µL of MTT were added to measure the cellular viability. The resultant formazan crystals were dissolved in 50 µL of DMSO, and the absorbance was measured at 570 and 630 nm. The results are expressed as IC50, the half maximal inhibitory concentration. This value was calculated using OriginPro 8.5.1. software (OriginLab, Northampton, MA, USA) by nonlinear curve fitting. Furthermore, the selectivity index (SI) was calculated as the ratio of the IC50 values determined for the non-malignant and the tumor cells (IC50 (184B5)/IC50 (MCF-7). The data were obtained from at least three independent experiments performed in quadruplicates.

Assay [2] relates to HT-29 cells. Description: MTT cell viability assay, HT-29. The assay is classed as cell-based. To be noted: Homo sapiens, 48 h, read-out: Growth (%) HT-29. On the procedure:
as §1, §2
On the technique in general: Tetrazolium assays rely on reduction of a dye to a coloured formazan, in cell work by metabolically active cells.

Assay [3] deals with HTB-54 cells. Description: MTT cell viability assay, HTB-54. The assay is classed as cell-based. To be noted: Homo sapiens, HTB-54, 48 h, read-out: Growth (%) HTB-54. The procedure: as §1, §2

On to `Cc1ccc(NC(=[Se])NC(=O)c2ccccc2Cl)cc1` [Compound 2b], for which the values for the activity at 10 µM in assay [1], in assay [2] and in assay [3] were 60.1%, 80.2% and 87.9%, respectively. The activity at 50 µM amounted to 24.7% in assay [1], 46.1% in assay [2] and 66.6% in assay [3].
In the case of `Cc1ccc(NC(=[Se])NC(=O)c2ccco2)cc1` [Compound 6b], the values for the activity at 10 µM in assay [1], in assay [2] and in assay [3] were 64.9%, 87.6% and 73%, respectively. The figures for the activity at 50 µM in assay [1], in assay [2] and in assay [3] were 5.8%, 48.4% and 1.6%, respectively.
Turning to `COc1ccc(NC(=[Se])NC(=O)c2ccco2)cc1` [Compound 6c], the activity at 10 µM in assay [1] is 70%; in assay [2] it was 74.5%; in assay [3], 74.2%. For the same molecule, the activity at 50 µM in assay [1] amounted to 13.1%; in assay [2], 35.9%; in assay [3], 3.8%.
With `CSc1ccc(Cl)c(C(=O)NC(=[Se])Nc2ccccc2)c1` [Compound 3a], the activity at 10 µM was found to be 84.1% in assay [1], 71.1% in assay [2] and 88.8% in assay [3]. Further, the activity at 50 µM in assay [1] worked out at 23.1%; in assay [2], 42.7%; in assay [3] it was 49.9%.
As for `COc1ccc(NC(=[Se])NC(=O)c2ccccc2Cl)cc1` [Compound 2c], the values for the activity at 10 µM in assay [1], in assay [2] and in assay [3] were 62.6%, 76.3% and 84.9%, respectively. For the same molecule, the activity at 50 µM in assay [1] amounted to 26.4%; in assay [2], 44.8%; in assay [3], 66.7%.
For `COc1ccc(NC(=[Se])NC(=O)c2cc(SC)ccc2Cl)cc1` [Compound 3c], the activity at 10 µM in assay [1] is 73.9%; in assay [2], 67.9%; in assay [3], 79%. Moreover, the activity at 50 µM was determined as 23.7% in assay [1], 44.4% in assay [2] and 27.6% in assay [3].
Regarding `Cc1ccc(NC(=[Se])NC(=O)c2cccnc2Cl)cc1` [Compound 4b], the activity at 10 µM in assay [1] is 77.6%; in assay [2], 99.2%; in assay [3], 87%. Also, the activity at 50 µM in assay [1] amounted to 32.4%; in assay [2], 51.7%; in assay [3], 64.8%.
For `Cc1ccc(NC(=[Se])NC(=O)c2cc3ccccc3s2)cc1` [Compound 9b], the activity at 10 µM in assay [1] was determined as 76.8%; in assay [2], 64.3%; in assay [3], 79%. Moreover, the activity at 50 µM in assay [1] is 62.8%; in assay [2] it was 36.2%; in assay [3], 19%.
With `COc1ccc(NC(=[Se])NC(=O)C23CC4CC(CC(C4)C2)C3)cc1` [Compound 7c], the values for the activity at 10 µM in assay [1], in assay [2] and in assay [3] were 91.8%, 59.6% and 98.4%, respectively. The results for the activity at 50 µM in assay [1], in assay [2] and in assay [3] were 24.3%, 34% and 48.3%, respectively.
Take `O=C(NC(=[Se])Nc1ccc(C(F)(F)F)cc1)c1cccnc1Cl` [Compound 4d]: the activity at 10 µM in assay [1] is 67.1%; in assay [2] it was 103%; in assay [3], 90.5%. Further, the activity at 50 µM stood at 48.9% in assay [1], 62.2% in assay [2] and 62.2% in assay [3].
On to `O=C(NC(=[Se])Nc1ccc(C(F)(F)F)cc1)c1ccco1` [Compound 6d], for which the activity at 10 µM is 71.7% in assay [1], 81.5% in assay [2] and 59.4% in assay [3]. Besides, the activity at 50 µM is 11.9% in assay [1], 18.7% in assay [2] and 4.6% in assay [3].
`Cc1ccc(NC(=[Se])NC(=O)c2ccccc2)cc1` [Compound 1b]: the figures for the activity at 10 µM in assay [1], in assay [2] and in assay [3] were 64.2%, 60.4% and 75.8%, respectively. Besides, the activity at 50 µM is 12.6% in assay [1], 28% in assay [2] and 61.1% in assay [3].
